# Test results as given in PubChem BioAssay (NCI).
#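 Cells were grown in 96-well plates and exposed to each compound for 48 hours at five concentrations; endpoints were interpolated linearly between bracketing concentrations, or set to the highest concentration if not reached. The concentration for full growth arrest is given as TGI.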
# What was measured:
# Assay in all cases: growth of human tumour cells (NCI), 48 h
# [1] = tested on: A498 renal
# [2] = tested on: A549 NSCLC
# [3] = tested on: ACHN renal
# [4] = tested on: CAKI-1 renal
# [5] = tested on: CCRF-CEM leukemia
# [6] = tested on: COLO 205 colon
# [7] = tested on: DLD-1 colon
# [8] = tested on: DMS 114 small cell lung
# [9] = tested on: DMS 273 small cell lung
# [10] = tested on: EKVX NSCLC
# [11] = tested on: HCC-2998 colon
# [12] = tested on: HCT-116 colon
# [13] = tested on: HCT-15 colon
# [14] = tested on: HL-60(TB) leukemia
# [15] = tested on: HOP-18 NSCLC
# [16] = tested on: HOP-62 NSCLC
# [17] = tested on: HT29 colon
# [18] = tested on: IGROV1 ovarian
# [19] = tested on: K-562 leukemia
# [20] = tested on: KM12 colon
# [21] = tested on: KM20L2 colon
# [22] = tested on: LOX IMVI melanoma
# [23] = tested on: LXFL 529 NSCLC
# [24] = tested on: M14 melanoma
# [25] = tested on: M19-MEL melanoma
# [26] = tested on: MALME-3M melanoma
# [27] = tested on: MOLT-4 leukemia
# [28] = tested on: NCI-H226 lung
# [29] = tested on: NCI-H23 lung
# [30] = tested on: NCI-H460 lung
# [31] = tested on: NCI-H522 lung
# [32] = tested on: OVCAR-3 ovarian
# [33] = tested on: OVCAR-4 ovarian
# [34] = tested on: OVCAR-5 ovarian
# [35] = tested on: OVCAR-8 ovarian
# [36] = tested on: RXF 393 renal
# [37] = tested on: SF-268 CNS
# [38] = tested on: SF-295 CNS
# [39] = tested on: SF-539 CNS
# [40] = tested on: SK-MEL-2 melanoma
# [41] = tested on: SK-MEL-28 melanoma
# [42] = tested on: SK-MEL-5 melanoma
# [43] = tested on: SK-OV-3 ovarian
# [44] = tested on: SN12C renal
# [45] = tested on: SNB-19 CNS
# [46] = tested on: SNB-75 CNS
# [47] = tested on: SNB-78 CNS
# [48] = tested on: SR leukemia
# [49] = tested on: SW-620 colon
# [50] = tested on: TK-10 renal
# [51] = tested on: U251 CNS
# [52] = tested on: UACC-257 melanoma
# [53] = tested on: UACC-62 melanoma
# [54] = tested on: UO-31 renal
# [55] = tested on: XF 498 CNS
# [56] = tested on: 786-0 renal
# [57] = tested on: HOP-92 NSCLC
# [58] = tested on: RPMI-8226 leukemia
# [59] = tested on: RXF-631 renal
smiles,measurement,setting,value
N#CC(Nc1cccc(C(F)(F)F)c1)c1ccccc1C(F)(F)F (stereo not given),TGI,[1],34.2 µM
same,TGI,[2],29.3 µM
same,TGI,[3],27.6 µM
same,TGI,[4],9.09 µM
same,TGI,[5],59.7 µM
same,TGI,[6],10.6 µM
same,TGI,[7],29.5 µM
same,TGI,[8],23.8 µM
same,TGI,[9],21.1 µM
same,TGI,[10],28.7 µM
same,TGI,[11],18.6 µM
same,TGI,[12],18.7 µM
same,TGI,[13],17.8 µM
same,TGI,[14],7.57 µM
same,TGI,[15],26.4 µM
same,TGI,[16],10.8 µM
same,TGI,[17],28 µM
same,TGI,[18],38.1 µM
same,TGI,[19],42.4 µM
same,TGI,[20],19.9 µM
same,TGI,[21],28.4 µM
same,TGI,[22],14.5 µM
same,TGI,[23],15.7 µM
same,TGI,[24],17.6 µM
same,TGI,[25],18 µM
same,TGI,[26],18 µM
same,TGI,[27],40.5 µM
same,TGI,[28],30.4 µM
same,TGI,[29],27.6 µM
same,TGI,[30],29.9 µM
same,TGI,[31],17.1 µM
same,TGI,[32],16.3 µM
same,TGI,[33],15.2 µM
same,TGI,[34],28.4 µM
same,TGI,[35],33 µM
same,TGI,[36],24.8 µM
same,TGI,[37],32.2 µM
same,TGI,[38],22.2 µM
same,TGI,[39],33.1 µM
same,TGI,[40],17.9 µM
same,TGI,[41],31.8 µM
same,TGI,[42],32.1 µM
same,TGI,[43],31.4 µM
same,TGI,[44],17.9 µM
same,TGI,[45],31.9 µM
same,TGI,[46],32.2 µM
same,TGI,[47],43 µM
same,TGI,[48],25.9 µM
same,TGI,[49],11 µM
same,TGI,[50],27.9 µM
same,TGI,[51],30.5 µM
same,TGI,[52],27.7 µM
same,TGI,[53],31.4 µM
same,TGI,[54],31.9 µM
same,TGI,[55],12.9 µM
CCC12CCCNC1c1c(n(C)c3ccccc13)C(C(=O)OC)C2 (stereo not given),TGI,[56],> 275 µM
same,TGI,[2],> 275 µM
same,TGI,[3],257 µM
same,TGI,[4],77.3 µM
same,TGI,[5],> 275 µM
same,TGI,[6],82.5 µM
same,TGI,[7],> 275 µM
same,TGI,[8],152 µM
same,TGI,[9],246 µM
same,TGI,[10],> 275 µM
same,TGI,[11],> 275 µM
same,TGI,[12],> 275 µM
same,TGI,[13],> 275 µM
same,TGI,[14],> 275 µM
same,TGI,[16],> 275 µM
same,TGI,[57],113 µM
same,TGI,[17],114 µM
same,TGI,[18],> 275 µM
same,TGI,[19],> 275 µM
same,TGI,[20],161 µM
same,TGI,[21],231 µM
same,TGI,[22],> 275 µM
same,TGI,[23],> 275 µM
same,TGI,[25],194 µM
same,TGI,[26],> 275 µM
same,TGI,[27],> 275 µM
same,TGI,[28],> 275 µM
same,TGI,[29],252 µM
same,TGI,[30],> 275 µM
same,TGI,[31],37.6 µM
same,TGI,[32],91.1 µM
same,TGI,[34],208 µM
same,TGI,[35],> 275 µM
same,TGI,[58],199 µM
same,TGI,[36],153 µM
same,TGI,[37],> 275 µM
same,TGI,[38],124 µM
same,TGI,[39],> 275 µM
same,TGI,[40],259 µM
same,TGI,[41],> 275 µM
same,TGI,[42],82.5 µM
same,TGI,[43],186 µM
same,TGI,[44],> 275 µM
same,TGI,[45],> 275 µM
same,TGI,[48],> 275 µM
same,TGI,[49],> 275 µM
same,TGI,[50],> 275 µM
same,TGI,[51],> 275 µM
same,TGI,[52],255 µM
same,TGI,[53],> 275 µM
same,TGI,[55],123 µM
COC(=O)NN1C(C)=C(C(=O)OC)C2(C#N)C(C(=O)OC)=C(C)N(NC(=O)OC)C12N (stereo not given),TGI,[56],> 100 µM
same,TGI,[1],> 100 µM
same,TGI,[2],> 100 µM
same,TGI,[3],> 100 µM
same,TGI,[4],> 100 µM
same,TGI,[5],> 100 µM
same,TGI,[6],> 100 µM
same,TGI,[7],> 100 µM
same,TGI,[8],> 100 µM
same,TGI,[9],> 100 µM
same,TGI,[10],> 100 µM
same,TGI,[11],> 100 µM
same,TGI,[12],> 100 µM
same,TGI,[13],> 100 µM
same,TGI,[14],> 100 µM
same,TGI,[15],> 100 µM
same,TGI,[16],> 100 µM
same,TGI,[57],> 100 µM
same,TGI,[17],> 100 µM
same,TGI,[18],> 100 µM
same,TGI,[19],> 100 µM
same,TGI,[21],> 100 µM
same,TGI,[22],> 100 µM
same,TGI,[23],> 100 µM
same,TGI,[24],> 100 µM
same,TGI,[25],> 100 µM
same,TGI,[26],> 100 µM
same,TGI,[27],> 100 µM
same,TGI,[28],> 100 µM
same,TGI,[29],> 100 µM
same,TGI,[30],> 100 µM
same,TGI,[31],> 100 µM
same,TGI,[33],> 100 µM
same,TGI,[34],> 100 µM
same,TGI,[35],> 100 µM
same,TGI,[58],> 100 µM
same,TGI,[59],> 100 µM
same,TGI,[37],> 100 µM
same,TGI,[39],> 100 µM
same,TGI,[40],> 100 µM
same,TGI,[41],> 100 µM
same,TGI,[43],> 100 µM
same,TGI,[44],> 100 µM
same,TGI,[45],> 100 µM
same,TGI,[47],> 100 µM
same,TGI,[49],> 100 µM
same,TGI,[50],> 100 µM
same,TGI,[51],> 100 µM
same,TGI,[52],> 100 µM
same,TGI,[53],> 100 µM
same,TGI,[54],> 100 µM
same,TGI,[55],> 100 µM
O=C(/C=C/c1ccccc1Cl)c1cccc2ccccc12,TGI,[56],17.9 µM
same,TGI,[1],27.5 µM
same,TGI,[2],34 µM
same,TGI,[3],30.4 µM
same,TGI,[4],25.4 µM
same,TGI,[5],45.2 µM
same,TGI,[6],33.3 µM
same,TGI,[7],25.1 µM
same,TGI,[8],15.2 µM
same,TGI,[9],31.6 µM
same,TGI,[10],25.4 µM
same,TGI,[11],27.9 µM
same,TGI,[12],12.8 µM
same,TGI,[13],17.2 µM
same,TGI,[14],37.7 µM
same,TGI,[15],29.7 µM
same,TGI,[16],28.9 µM
same,TGI,[57],34.9 µM
same,TGI,[17],23.6 µM
same,TGI,[18],29.6 µM
same,TGI,[19],> 100 µM
same,TGI,[20],16.8 µM
same,TGI,[21],19.6 µM
same,TGI,[22],24.3 µM
same,TGI,[23],11.9 µM
same,TGI,[24],30.5 µM
same,TGI,[25],23.5 µM
same,TGI,[26],30.1 µM
same,TGI,[27],5.59 µM
same,TGI,[28],> 100 µM
same,TGI,[29],28.1 µM
same,TGI,[30],19.7 µM
same,TGI,[31],18.6 µM
same,TGI,[32],15 µM
same,TGI,[33],16.6 µM
same,TGI,[34],26.7 µM
same,TGI,[35],4.19 µM
same,TGI,[58],91 µM
same,TGI,[36],28.6 µM
same,TGI,[37],28.4 µM
same,TGI,[38],25.4 µM
same,TGI,[39],23.3 µM
same,TGI,[40],35.5 µM
same,TGI,[41],28.1 µM
same,TGI,[42],34 µM
same,TGI,[43],34.8 µM
same,TGI,[44],> 100 µM
same,TGI,[45],16.8 µM
same,TGI,[46],18.3 µM
same,TGI,[47],44.8 µM
same,TGI,[48],9.16 µM
same,TGI,[49],4.06 µM
same,TGI,[50],29.2 µM
same,TGI,[51],8.45 µM
same,TGI,[52],32 µM
same,TGI,[53],28.6 µM
same,TGI,[54],21.3 µM
